The text below walks through data of publication PMC4099174 (Journal of Medicinal Chemistry, 2014).

Where two headings read alike, the source gives them in different places. Where only a bound is given, the exact number is not on record here.

For data set [1], the system named is Bloodstream Trypanosoma brucei brucei Lister 427. Put plainly: Trypanosome cell growth dose–response assay (resazurin viability test). In kind it is cell-based. For orientation: Alamar Blue is a resazurin reagent that responds to reducing activity.
Data set [2] has as its system bloodstream form of T. brucei. Put plainly: Transferrin uptake (receptor-mediated endocytosis). Format: cell-based, Trypanosoma brucei. Particulars: concentration twice the EC50, 18 h. An excerpt:
Highly efficient and rapid endocytosis is one of the most important cellular processes for this infective parasite to survive and multiply within the bloodstream of the host, and the activity of TbPI3KIII is essential for this process.[25] To gain insight on the possible target(s) of our compounds, we carried out transferrin uptake experiments to measure receptor-mediated endocytosis after drug treatment. […] Compound 16e induced a phenotype defective in endocytosis (Figure 3); however, the PIP3 molecular species identified (42:7-9) was not the same PIP3 molecular species identified in WT cells (44:9-12).
Two million trypanosomes were harvested and washed with TDB-glucose plus 1% BSA, resuspended in 250 μL in the same buffer, and incubated for 10 min at 37 °C prior to the addition of 5 μg of AlexaFluor 488-conjugated human holo-Tf (Invitrogen). Incubations were carried out for 0 (no Tf) or 3 min at 37 °C, after which cells were immediately fixed in 4 °C in 1% PFA diluted in cold PBS for at least 1 h. Parasites were finally washed twice with PBS and analyzed with a Becton Dickinson FACSCalibur flow cytometer (BD Biosciences) using BD CellQuest Pro version 4.0.2 software.

Data set [3] concerns phosphorylated PIs (PIP, PIP3) in T. brucei cells. Put plainly: Phospholipidomics analysis (ES-MS of lipid extracts). In kind it is cell-based, Trypanosoma brucei. Particulars: 200 nM, 12 h; negative ion mode scans 950–1300 m/z. An excerpt: We originally selected 1 to investigate its potential as an trypanocidal agent on the basis of its activity as a PI3K/mTOR inhibitor in mammalian cells and the fact that PI3K activity is essential for the bloodstream form of the T. brucei parasite.[25] In the interest of elucidating the potential mechanism of action against T. brucei cells, we performed a lipidomic analysis to discern if PI kinases are likely targets of these analogues. Lipid extracts of cells grown in the presence of the best compounds at sublethal doses (200 nM) for 12 h were analyzed by ES-MS. […] There were no significant differences in the phosphatidylcholine (PC) and sphingomylein (SM) species between the control and cells grown in the presence of the other compounds (Figure S1). […] Alternatively, as is often the case, changes in the lipid profile could be a reflection in the cells succumbing to (or adapting to) a defect in a major cellular process, such as endo- or exocytosis or cell cycle arrest.
Because these compounds are thought to target PI3K, negative ion mode scans between 950 and 1300 m/z were conducted to focus upon singly and multiply phosphorylated PIs.
Total lipids from mid log phase cells were extracted by the method of Bligh and Dyer.[30] Briefly, mid log phase cells were collected by centrifugation (800g, 10 min), washed with PBS, resuspended in 100 μL of TDB-glucose, transferred to a glass tube containing 375 μL of 1:2 (v/v) CHCl3/MeOH, and vortexed. The sample was agitated vigorously for a further 10–15 min. The sample was made biphasic by the addition of 125 μL of CHCl3 and vortexed, and then 125 μL of H2O was added. The sample was vortexed again and centrifuged at 3000g at rt for 10 min. The lower (organic) phase was transferred into a new glass vial, and the aqueous phase was re-extracted with the fresh lower phase. The resultant lower phase lipid extract was dried under a stream of nitrogen and stored at 4 °C.
Lipid extracts were dissolved in 15 μL of CHCl3/MeOH (1:2) and 15 μL of acetonitrile/isopropanol/water (6:7:2) and analyzed with a triple quadrupole mass spectrometer (Absceix 4000 QTrap) equipped with a nanoelectrospray source. […] The lipid extracts were analyzed in both positive and negative ion modes using a capillary voltage of 1.25 kV. […] Tandem mass spectra (MS/MS) were obtained with collision energies as follows: 35–45 V, PC/SM in positive ion mode, parent-ion scanning of m/z 184; 35–55 V, PI in negative ion mode, parent-ion scanning of m/z 241; 35–65 V, PE in negative ion mode, parent-ion scanning of m/z 196; 20–35 V, PS in negative ion mode, neutral loss scanning of m/z 87; and 40–90 V, for all glycerophospholipids (including PA, PG, and cardiolipin) detected by precursor scanning for m/z 153 in negative ion mode. […]

Data set [4] deals with Bloodstream form culture of T. b. brucei. Description: Cell cycle analysis by FACS (propidium iodide). In kind it is cell-based, Trypanosoma brucei brucei. As to conditions: concentration twice the EC50, 18 h. As for the experimental part: For cell cycle analysis, samples (1.5 × 10^6 cells) were collected, centrifuged (1400g at 4 °C for 5 min), and washed in trypanosome dilution buffer (TDB). The cell pellets were gently suspended in 50 μL of TDB and permeabilized by adding 1 μL of saponin (25 mg/mL) for 3 min. It was then mixed with another 450 μL of TDB. RNase and propidium iodide (PI) were added to the suspension at final concentrations of 10 and 20 μg/mL, respectively, and the samples were incubated at room temperature for 30 min and then stored at 4 °C. The DNA content of PI-stained cells and the percentage of cells in each phase of the cell cycle (10 000 cells per sample) were analyzed with a Becton Dickinson FACSCalibur flow cytometer (BD Biosciences) using BD CellQuest Pro version 4.0.2 software.
Figure S3. Cell Cycle analysis of parasites upon dosage with NVP-BEZ235 derivative.
Bloodstream form culture of T. b. brucei was subjected to different drugs and analyzed by
Fluorescencecactivated cell sorter (FACS) for DNA content stained by propidium iodide (PI).
Cell cultures were incubated during 18 h with various NVPcBEZ235 derivatives using DMSO as
a control treatment. Mean ± SD of three independent experiments are shown.
Background: Flow cytometry measures light scatter and fluorescence of single cells or particles in a stream.

The nature of a further data set: ChromlogD assay. Format: physicochemical. Particulars: pH 7.4. As for the experimental part: page 13: PHYSICOCHEMICAL PROPERTIES ASSAYS […] phosphate buffered saline, equilibrated for 1 hour at room temperature, filtered through Millipore […] filter plates (MSSL BPC). The filtrate is quantified by suitably calibrated flow injection ChemicLuminescent Nitrogen Detection.1 The standard error of the CLND solubility […] DMSO stock solution. GSK inchouse Artificial Membrane Permeability Assay: […] in 1% cholesterol decane solution was applied to a […], 0.4um, PCF culture plate. 250 μL and 100 μL 50 mM phosphate buffer pH 7.4 with 0.5% […] applied to the […] in DMSO was added to the donor compartment. The assay was incubated at RT for 3 hours. Samples from both donor and receiver compartments were analyzed by HPLC with UV detection at 215 and 254 nm and permeability was calculated. The permeability (logPapp) measuring how fast molecules pass through the black lipid membrane is expressed in nm/s. ChromlogD assay. The Chromatographic Hydrophobicity Index (CHI)2 values were measured using reversed phase HPLC column (Luna C18 (2),Phenomenex, UK) with fast acetonitrile gradient at starting mobile phase of pH = 7.4. CHI values are derived directly from the gradient retention times by using a calibration line obtained for standard compounds. The CHI value approximates to the volume % organic concentration when the compound elutes. CHI is linearly transformed into ChromlogD by leastcsquare fitting of experimental CHI values to calculated ClogP values for over 20K research compounds using the following formula: ChromlogD = 0.0857CHIc2.00. The average error of the assay is ±3 CHI unit or ±0.25 ChromlogD. S13

The mark [5] stands for this setting: Table 2, average of two replicates, read-out: T brucei EC50.
[6] abbreviates: Table 4, measured value (outside parentheses).

One may read the EC50 as the concentration needed to bring the measured effect to its halfway point. Consider “1-(4-((4-Methylpiperazin-1-yl)methyl)phenyl)-8-(pyridin-4-yl)-1H-imidazo[4,5-c]quinolin-2(3H)-one [Compound 16j]”, for which the “HepG2 TC50” value in the data set with HepG2 cell line was above 7.6 µM. For the same molecule, the EC50 in data set [1] (setting [5]) came out at 3.35 µM.
On the same counts, the results for “1-Methyl-8-(pyridin-4-yl)-1H-imidazo[4,5-c]quinolin-2(3H)-one [Compound 16k]” are above 20 µM and 3.27 µM.
One may read the chromatographic logD as a lipophilicity value derived from retention on a column. For `Cn1c(=O)n(-c2ccc(C(C)(C)C#N)cc2)c2c3cc(-c4cnc5ccccc5c4)ccc3ncc21` [Compound 1, NVP-BEZ235, reference compound], the “transferrin uptake / endocytosis” value in data set [2] is “inhibited endocytosis dramatically”. Further, the “phosphorylated PI (PIP) levels vs control cells” value in data set [3] was “almost complete absence of all phosphorylated PIs”. Further, the cell cycle progression entry in data set [4] is recorded as “did not significantly alter cell cycle progression”. Moreover, in the data set “ChromlogD assay”, the chromatographic logD was 4.75.
Consider `Cc1ccc(-n2c(=O)n(C)c3cnc4ccc(-c5ccncc5)cc4c32)cc1` [Compound 16e, 3-Methyl-8-(pyridin-4-yl)-1-(p-tolyl)-1H-imidazo[4,5-c]quinolin-2(3H)-one], for which the “transferrin uptake / endocytosis” value in data set [2] is reported as “inhibited endocytosis dramatically”. For the same molecule, the “phosphorylated PI (PIP) levels vs control cells” value in data set [3] was “significant (albeit incomplete) reduction in PIP levels”. The cell cycle progression entry in data set [4] is “did not significantly alter cell cycle progression”. Further, in the data set “ChromlogD assay” (setting [6]), the chromatographic logD is 3.5.
With `COc1ccc(-n2c(=O)n(C)c3cnc4ccc(-c5ccncc5)cc4c32)cc1` [Compound 16g, 1-(4-Methoxyphenyl)-3-methyl-8-(pyridin-4-yl)-1H-imidazo[4,5-c]quinolin-2(3H)-one], in data set [2], the “transferrin uptake / endocytosis” value is “inhibited endocytosis dramatically”. In addition, the “phosphorylated PI (PIP) levels vs control cells” value in data set [3] was “almost complete absence of all phosphorylated PIs”. For the same molecule, the cell cycle progression entry in data set [4] is listed as “did not significantly alter cell cycle progression”. Besides, in “ChromlogD assay” (setting [6]), the chromatographic logD was determined as 3.03.
As to `CC(C)(C#N)c1ccc(Nc2c(N)cnc3ccc(-c4cnc5ccccc5c4)cc23)cc1` [Compound 20, 2-(4-((3′-Amino-[3,6′-biquinolin]-4′-yl)amino)phenyl)-2-methylpropanenitrile], the half-maximal effective concentration (EC50) in data set [1] (Trypanosoma brucei, read-out: EC50 against T. brucei) came to 0.767 µM.
